{"source": "PubChem BioAssay AID2060891", "about": "(Molecular Pharmacology Branch, DTP, NCI, 2025)", "test_system": "K98450-129-R-PDC complex spheroid growth, percent test/control", "experiment": "Anticancer human tumor K98450-129-R-PDC patient-derived colon adenocarcinoma cell line growth inhibition [RAS]", "conditions": "for pIC50: curve of first compound; for viability, T/C: stronger effect = lower value", "method_in_brief": "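Tumour cells grown as complex spheroids with HUVEC endothelial cells and mesenchymal stem cells, treated with RAS pathway inhibitor combinations. Each agent spans half-log steps from near clinical Cmax, or 10 microM where Cmax is unknown.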", "key": {"[1]": {"conditions": "second compound 0.00316 µM, first compound 0.0316 µM"}, "[2]": {"conditions": "second compound 0.00316 µM, first compound 0.1 µM"}, "[3]": {"conditions": "second compound 0.00316 µM, first compound 0.316 µM"}, "[4]": {"conditions": "second compound 0.00316 µM, first compound 1 µM"}, "[5]": {"conditions": "second compound 0.01 µM, first compound 0.0316 µM"}, "[6]": {"conditions": "second compound 0.01 µM, first compound 0.1 µM"}, "[7]": {"conditions": "second compound 0.01 µM, first compound 0.316 µM"}, "[8]": {"conditions": "second compound 0.01 µM, first compound 1 µM"}, "[9]": {"conditions": "second compound 0.0316 µM, first compound 0.0316 µM"}, "[10]": {"conditions": "second compound 0.0316 µM, first compound 0.1 µM"}, "[11]": {"conditions": "second compound 0.0316 µM, first compound 0.316 µM"}, "[12]": {"conditions": "second compound 0.0316 µM, first compound 1 µM"}, "[13]": {"conditions": "second compound 0.1 µM, first compound 0.0316 µM"}, "[14]": {"conditions": "second compound 0.1 µM, first compound 0.1 µM"}, "[15]": {"conditions": "second compound 0.1 µM, first compound 0.316 µM"}, "[16]": {"conditions": "second compound 0.1 µM, first compound 1 µM"}, "[17]": {"conditions": "second compound 0.316 µM, first compound 0.0316 µM"}, "[18]": {"conditions": "second compound 0.316 µM, first compound 0.1 µM"}, "[19]": {"conditions": "second compound 0.316 µM, first compound 0.316 µM"}, "[20]": {"conditions": "second compound 0.316 µM, first compound 1 µM"}, "[21]": {"conditions": "second compound 1 µM, first compound 0.0316 µM"}, "[22]": {"conditions": "second compound 1 µM, first compound 0.1 µM"}, "[23]": {"conditions": "second compound 1 µM, first compound 0.316 µM"}, "[24]": {"conditions": "second compound 1 µM, first compound 1 µM"}}, "note": "pIC50: −log10 of the molar value.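 Note: spheroids exposed to agents for seven days before the viability readout.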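 Throughout, for viability, T/C: luminescence used as a proxy for viable cell amount.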"}
{"smiles": "NC1c2ccccc2OC12CCN(c1cnc3c(N4CCCc5ncccc54)n[nH]c3n1)CC2", "note": "(centres undefined) + C=CC(=O)N1CCN(c2nc(OCC3CCCN3C)nc3c(F)c(-c4nc(N)cc(C)c4C(F)(F)F)c(Cl)cc23)C(C)C1", "values": [{"measurement": "pIC50", "setting": "second compound 0.00316 µM", "value": 7.23}, {"measurement": "pIC50", "setting": "second compound 0.01 µM", "value": "> 7.50"}, {"measurement": "pIC50", "setting": "second compound 0.0316 µM", "value": "> 7.50"}, {"measurement": "pIC50", "setting": "second compound 0.1 µM", "value": "> 7.50"}, {"measurement": "pIC50", "setting": "second compound 0.316 µM", "value": "> 7.50"}, {"measurement": "pIC50", "setting": "second compound 1 µM", "value": "> 7.50"}, {"measurement": "viability, T/C", "setting": "[1]", "value": 71.8, "unit": "%"}, {"measurement": "viability, T/C", "setting": "[2]", "value": 31.1, "unit": "%"}, {"measurement": "viability, T/C", "setting": "[3]", "value": 8.4, "unit": "%"}, {"measurement": "viability, T/C", "setting": "[4]", "value": 7.7, "unit": "%"}, {"measurement": "viability, T/C", "setting": "second compound 0.00316 µM, first compound 3.16 µM", "value": 6.2, "unit": "%"}, {"measurement": "viability, T/C", "setting": "second compound 0.00316 µM, first compound 10 µM", "value": 4.82, "unit": "%"}, {"measurement": "viability, T/C", "setting": "[5]", "value": 48.1, "unit": "%"}, {"measurement": "viability, T/C", "setting": "[6]", "value": 13, "unit": "%"}, {"measurement": "viability, T/C", "setting": "[7]", "value": 7.99, "unit": "%"}, {"measurement": "viability, T/C", "setting": "[8]", "value": 7.31, "unit": "%"}, {"measurement": "viability, T/C", "setting": "second compound 0.01 µM, first compound 3.16 µM", "value": 6.81, "unit": "%"}, {"measurement": "viability, T/C", "setting": "second compound 0.01 µM, first compound 10 µM", "value": 4.84, "unit": "%"}, {"measurement": "viability, T/C", "setting": "[9]", "value": 16.9, "unit": "%"}, {"measurement": "viability, T/C", "setting": "[10]", "value": 10.2, "unit": "%"}, {"measurement": "viability, T/C", "setting": "[11]", "value": 8.19, "unit": "%"}, {"measurement": "viability, T/C", "setting": "[12]", "value": 7.23, "unit": "%"}, {"measurement": "viability, T/C", "setting": "second compound 0.0316 µM, first compound 3.16 µM", "value": 5.99, "unit": "%"}, {"measurement": "viability, T/C", "setting": "second compound 0.0316 µM, first compound 10 µM", "value": 4.9, "unit": "%"}, {"measurement": "viability, T/C", "setting": "[13]", "value": 12.3, "unit": "%"}, {"measurement": "viability, T/C", "setting": "[14]", "value": 8.86, "unit": "%"}, {"measurement": "viability, T/C", "setting": "[15]", "value": 8.05, "unit": "%"}, {"measurement": "viability, T/C", "setting": "[16]", "value": 6.93, "unit": "%"}, {"measurement": "viability, T/C", "setting": "second compound 0.1 µM, first compound 3.16 µM", "value": 6.33, "unit": "%"}, {"measurement": "viability, T/C", "setting": "second compound 0.1 µM, first compound 10 µM", "value": 4.82, "unit": "%"}, {"measurement": "viability, T/C", "setting": "[17]", "value": 10.9, "unit": "%"}, {"measurement": "viability, T/C", "setting": "[18]", "value": 8.75, "unit": "%"}, {"measurement": "viability, T/C", "setting": "[19]", "value": 8.02, "unit": "%"}, {"measurement": "viability, T/C", "setting": "[20]", "value": 6.49, "unit": "%"}, {"measurement": "viability, T/C", "setting": "second compound 0.316 µM, first compound 3.16 µM", "value": 6.35, "unit": "%"}, {"measurement": "viability, T/C", "setting": "second compound 0.316 µM, first compound 10 µM", "value": 5.02, "unit": "%"}, {"measurement": "viability, T/C", "setting": "[21]", "value": 10.8, "unit": "%"}, {"measurement": "viability, T/C", "setting": "[22]", "value": 9.4, "unit": "%"}, {"measurement": "viability, T/C", "setting": "[23]", "value": 8.01, "unit": "%"}, {"measurement": "viability, T/C", "setting": "[24]", "value": 6.8, "unit": "%"}, {"measurement": "viability, T/C", "setting": "second compound 1 µM, first compound 3.16 µM", "value": 6.75, "unit": "%"}, {"measurement": "viability, T/C", "setting": "second compound 1 µM, first compound 10 µM", "value": 5.01, "unit": "%"}]}
{"smiles": "Nc1ccn(C2OC(CO)C(O)C2(F)F)c(=O)n1", "note": "(centres undefined) + C=CC(=O)N1CCN(c2nc(OCC3CCCN3C)nc3c(F)c(-c4nc(N)cc(C)c4C(F)(F)F)c(Cl)cc23)C(C)C1", "values": [{"measurement": "pIC50", "setting": "second compound 0.00316 µM", "value": 7.24}, {"measurement": "pIC50", "setting": "second compound 0.01 µM", "value": 7.47}, {"measurement": "pIC50", "setting": "second compound 0.0316 µM", "value": 7.82}, {"measurement": "pIC50", "setting": "second compound 0.1 µM", "value": 8.24}, {"measurement": "pIC50", "setting": "second compound 0.316 µM", "value": "> 8.50"}, {"measurement": "pIC50", "setting": "second compound 1 µM", "value": "> 8.50"}, {"measurement": "viability, T/C", "setting": "second compound 0.00316 µM, first compound 0.00316 µM", "value": 91.3, "unit": "%"}, {"measurement": "viability, T/C", "setting": "second compound 0.00316 µM, first compound 0.01 µM", "value": 86.3, "unit": "%"}, {"measurement": "viability, T/C", "setting": "[1]", "value": 59.6, "unit": "%"}, {"measurement": "viability, T/C", "setting": "[2]", "value": 40.5, "unit": "%"}, {"measurement": "viability, T/C", "setting": "[3]", "value": 31.7, "unit": "%"}, {"measurement": "viability, T/C", "setting": "[4]", "value": 25.8, "unit": "%"}, {"measurement": "viability, T/C", "setting": "second compound 0.01 µM, first compound 0.00316 µM", "value": 91, "unit": "%"}, {"measurement": "viability, T/C", "setting": "second compound 0.01 µM, first compound 0.01 µM", "value": 76.8, "unit": "%"}, {"measurement": "viability, T/C", "setting": "[5]", "value": 49.1, "unit": "%"}, {"measurement": "viability, T/C", "setting": "[6]", "value": 34.8, "unit": "%"}, {"measurement": "viability, T/C", "setting": "[7]", "value": 28.5, "unit": "%"}, {"measurement": "viability, T/C", "setting": "[8]", "value": 22.8, "unit": "%"}, {"measurement": "viability, T/C", "setting": "second compound 0.0316 µM, first compound 0.00316 µM", "value": 68.4, "unit": "%"}, {"measurement": "viability, T/C", "setting": "second compound 0.0316 µM, first compound 0.01 µM", "value": 59.5, "unit": "%"}, {"measurement": "viability, T/C", "setting": "[9]", "value": 34.1, "unit": "%"}, {"measurement": "viability, T/C", "setting": "[10]", "value": 22.6, "unit": "%"}, {"measurement": "viability, T/C", "setting": "[11]", "value": 18.5, "unit": "%"}, {"measurement": "viability, T/C", "setting": "[12]", "value": 16.3, "unit": "%"}, {"measurement": "viability, T/C", "setting": "second compound 0.1 µM, first compound 0.00316 µM", "value": 57.5, "unit": "%"}, {"measurement": "viability, T/C", "setting": "second compound 0.1 µM, first compound 0.01 µM", "value": 43, "unit": "%"}, {"measurement": "viability, T/C", "setting": "[13]", "value": 24.4, "unit": "%"}, {"measurement": "viability, T/C", "setting": "[14]", "value": 17.7, "unit": "%"}, {"measurement": "viability, T/C", "setting": "[15]", "value": 15.2, "unit": "%"}, {"measurement": "viability, T/C", "setting": "[16]", "value": 14.7, "unit": "%"}, {"measurement": "viability, T/C", "setting": "second compound 0.316 µM, first compound 0.00316 µM", "value": 41.5, "unit": "%"}, {"measurement": "viability, T/C", "setting": "second compound 0.316 µM, first compound 0.01 µM", "value": 38.6, "unit": "%"}, {"measurement": "viability, T/C", "setting": "[17]", "value": 21.8, "unit": "%"}, {"measurement": "viability, T/C", "setting": "[18]", "value": 16.4, "unit": "%"}, {"measurement": "viability, T/C", "setting": "[19]", "value": 14.2, "unit": "%"}, {"measurement": "viability, T/C", "setting": "[20]", "value": 12.8, "unit": "%"}, {"measurement": "viability, T/C", "setting": "second compound 1 µM, first compound 0.00316 µM", "value": 36.2, "unit": "%"}, {"measurement": "viability, T/C", "setting": "second compound 1 µM, first compound 0.01 µM", "value": 25.1, "unit": "%"}, {"measurement": "viability, T/C", "setting": "[21]", "value": 18.8, "unit": "%"}, {"measurement": "viability, T/C", "setting": "[22]", "value": 16.9, "unit": "%"}, {"measurement": "viability, T/C", "setting": "[23]", "value": 14.3, "unit": "%"}, {"measurement": "viability, T/C", "setting": "[24]", "value": 14.4, "unit": "%"}]}
